In series [1] the target is PAF (Homo sapiens, UniProt P25105). The note with it: see EP0480455A1, cited from earlier work.
The nature of series [2]: Evaluation of chemical stability (solution state stress conditions, HPLC). The format is physicochemical. On the procedure:
Evaluation of Chemical Stability Within solution state stability studies the influence of temperature, pH and light exposure are analyzed. Stress conditions are applied in order to get a fast signal of possible chemical decomposition via hydrolytical, oxidative or photodegradative pathways. […] The stressed/stored samples are analysed by a stability indicative chiral or achiral HPLC-method, as appropriate. Degradation studies are used to simulate chemical stability of compounds in the acidic part of the gastrointestinal tract. The compounds of the invention show high chemical stability in acidic aqueous media (pH value ca. 1.2) what makes their application as medical drugs to treat human diseases less restricted and troublesome. […] Compound is dissolved in an HPLC vial in a mixture of acetonitrile/0.1 M aqueous HCl (ratio: 2:3; pH ca. 1.2) to get a concentration of approximately 0.25 mg/ml. The vial is then transferred into an HPLC autosampler system and maintained at the desired temperature of, e.g., 40° C. A first sample is taken and injected immediately into a standard HPLC system with a UV DAD detector. A further sample is injected after 24 hours. Amount of degraded compound is measured by determining the recovery rate of compound [%] for the 24 h injection using an HPLC standard gradient method. Therefore the peak area of the main peak for the first injection (AUt0) is determined and set as 100%. Peak area of the main peak is determined also for the 24 h injection (AU24 h) and expressed as fraction of (AU24 h)/(AUt0)[%]. Analogously, the amount of degraded compound is determined for stability examinations running for more than 1 day, e.g., for 3 days.

In series [3] the target is T1, PAFR (Homo sapiens, UniProt P25105). Description: cellular HTRF IP1 assay: inhibition of PAFR activation by PAF C-16 ligand (endpoint assay). The format is cell-based. The arrangement: expressed in transfected cells; host or cells: HEK293. Put shortly:
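HEK293 cells overexpressing human PAFR were preincubated with compound (1% DMSO) 90 min at 37°C, then challenged with 11 nM PAF C-16 for 60 min in HBSS/20 mM HEPES pH 7.4/50 mM LiCl/0.1% BSA. IP1 accumulation read by HTRF (665/620 nm emission).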
Target sequence in this assay (P25105 whole entry): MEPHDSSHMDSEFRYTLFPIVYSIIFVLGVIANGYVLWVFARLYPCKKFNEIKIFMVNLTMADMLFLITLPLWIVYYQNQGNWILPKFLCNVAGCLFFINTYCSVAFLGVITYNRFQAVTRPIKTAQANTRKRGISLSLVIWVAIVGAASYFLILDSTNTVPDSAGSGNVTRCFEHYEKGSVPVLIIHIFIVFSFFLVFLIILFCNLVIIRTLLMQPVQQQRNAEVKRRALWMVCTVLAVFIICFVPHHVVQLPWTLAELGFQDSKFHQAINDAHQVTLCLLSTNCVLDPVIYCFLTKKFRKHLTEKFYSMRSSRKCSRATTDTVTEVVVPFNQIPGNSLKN

Series [4] has as its target T1, PAFR. To be noted: literature values (Weber et al.; EP0368175A1); read-out: PAFR affinity (Ki); cited from earlier work.
Target sequence in this assay (P25105 whole entry, species assumed): as the sequence (P25105 whole entry) above
The mark [5] stands for this setting: HEK293 cells overexpressing human PAFR, PAF ligand 11 nM, Table 2.
Setting [6] is: 40° C., ACN/0.1M aq. HCl (pH ca. 1.2).
The mark [7] stands for this setting: dedicated head-to-head comparison assay run: cyclopropylene vs di-methyl / cyclobutylene analogues.

This is an account of results in US11992494B2, “Cyclopentathiophene carboxamide derivatives as platelet activating factor receptor antagonists” (Boehringer Ingelheim International GmbH, priority 2021, dated 2024).

SMILES strings stand for the structures. Where two headings read alike, the source gives them in different places.

Sequence of PAF (P25105 whole entry): as above

Regarding `Cc1nnc2n1-c1sc(CCC(=O)N3CCOCC3)cc1C(c1ccccc1Cl)=NC2C` (stereo not drawn) [example 1 of EP0368175A1 S-configured isomer], the “PAF-antagonistic activity relative to racemate” value in series [1] is “S-configured isomer with several times”; in series [1] (listed as Compound B S-configured enantiomer), “several times stronger”.
In the case of `CCCN(CCC)C(=O)[C@@H]1Cc2sc3c(c2C1)C(c1ccccc1Cl)=NC1(CC1)c1nnc(C)n1-3` [Example 104, (13′S)-9′-(2-chlorophenyl)-3′-methyl-N, N-dipropyl-16′-thia-2′,4′,5′,8′-tetraazaspiro[cyclopropane-1,7′-tetracyclo[8.6.0.0^2,6.0^11,15]hexadecane]-1′(10′),3′,5′,8′,11′(15′)-pentaene-13′-carboxamide], in series [2] (0.25 mg/ml, pH 1.2), the “Amount of degradation after 3 d at 40° C. in ACN/0.1M aq. HCl” value (“Amount of degradation after 3 d” below) is 1.5%. Also, 0.9 nM corresponded to half-maximal inhibition in series [3] (setting [5]) (IC50).
For `Cc1nnc2n1-c1sc3c(c1C(c1ccccc1Cl)=NC21CC1)C[C@H](C(=O)N[C@@H]1CCC(F)(F)C1)C3` [Example 124], the “Amount of degradation after 3 d” value in series [2] (setting [6]) is on record as 2.5%. The figures for the IC50 in series [3] (setting [5]) and in series [3] (setting [7]) were 2.4 nM and 2.6 nM, respectively.
As for `Cc1nnc2n1-c1sc3c(c1C(c1ccccc1Cl)=NC2C)CC(C(=O)N1CCOCC1)C3` (single isomer, unassigned; (+)) [(+) 9dB], the Ki in series [4] is 3000 nM.
Regarding `Cc1nnc2n1-c1sc3c(c1C(c1ccccc1Cl)=NC21CC1)C[C@H](C(=O)N1CCOCC1)C3` [Example 114], the “Amount of degradation after 3 d” value in series [2] (setting [6]) worked out at 4%. In addition, the IC50 in series [3] (setting [5]) was found to be 7.2 nM; in series [3] (setting [7]) it was 6.6 nM.
Consider `Cc1nnc2n1-c1sc3c(c1C(c1ccccc1Cl)=NC2)CC(C(=O)N1CCOCC1)C3` (single isomer, unassigned; (+)) [(+)-bepafant], for which, in series [4], the Ki is 660 nM.
